Experimental data reported in US20110105434A1, “2-AMINO PURINE DERIVATIVES AND THEIR USE AS ANTI-HERPETIC AGENTS” (priority 2007, published 2011).
Read-outs that look alike come from different tables or passages of the source.

Columns and labels:
[1] = test system: patient with cranial nerve palsy; assay: cranial nerve palsy (loss of control of soft palate) and loss of sympathetic nerve function; format: in vivo, human
Excerpt: The loss of sympathetic nerve functions, can occur with a loss of control of some function of some autonomic muscles, or loss of sensation or both. This is not as common as 1 through 6, above. And, the effects are usually not as severe. One example is the loss of control of the soft palate, either partial or complete which can cause severe snoring, and is part of the sleep apnea syndrome, and also can cause a snorting sound when talking or laughing, or can cause food to get caught under the soft palate. Another condition is cranial nerve palsies as discussed in the Sixteenth Edition of the Merck Manual at page 2395. […] This new treatment effectively suppresses all of these conditions, and in at least one patient return of most lost function of the soft palate has occurred. In another there was significant return of anal sphincter tone with these doses which had been previously lost on the doses of '114.
A patient was experiencing the loss of control of the soft palate because it could not properly contract, a condition known as cranial nerve palsy. The condition causes snorting during talking and difficulty swallowing food. The food often lodges above the soft palate. These symptoms were 80% eliminated at 300 mg/kg of famciclovir per day.

[2] = test system: patient with reduced renal function; assay: creatinine clearance (renal function) in a patient with autoimmune disease; format: in vivo, human
Excerpt: Patients with autoimmune disease often suffer significant inflammation of the kidneys, often causing renal dysfunction and/or destruction, which can lead to death in the absence of dialysis. A clinical laboratory measure of kidney function is creatinine clearance. Creatinine is the metabolic product formed from creatine when food is converted to energy. Creatinine is produced at a steady state and is affected very little by diet or normal physical activities. When a subject's kidneys are damaged and/or cannot function normally, the amount of creatinine excreted in the subject's urine decreases while its level in the blood increases. Thus, the blood level of creatinine indicates how well the kidneys are working. A high level generally means the kidneys are not functioning properly. A creatinine clearance test is performed both on a blood sample taken from the subject's vein and on a sample of urine collected over 24 hours. […] A normal creatinine level is less than 1, and normal CrCl levels are typically >100 mL/min. Dialysis is usually required when CrCl levels fall below about 20 mL/min.

[3] = test system: patient with Raynaud's syndrome; assay: Raynaud's syndrome signs or symptoms; format: in vivo, human; conditions: 300 mg/kg per day in four equal doses over 24 hours
Excerpt: This example sets forth the treatment of a patient with signs or symptoms of disease associated with reduced blood flow to an organ or tissue (correlated with hypertonicity of the associated blood vessels) using high doses of famciclovir, a compound of Formula (II) where B is H and each of R1 and R2 is CH3C(O)—, at a level and under conditions as explained below.
A patient weighing about 100 kg having multiple signs or symptoms of autoimmune disease had been ingesting famciclovir for several years at about 10 g per day taken 4 times daily during a 24 hour period. While the subject's condition was tolerable, they were in a regular state of pain in the joints and had other signs or symptoms discussed below.
The patient also presented signs or symptoms of Raynaud's syndrome, which involves marked or severe vasoconstriction and ischemia in the extremities, usually fingers and toes. As a result, the patient often experienced extreme pain, cold, discoloration, lack of sensation and weakness in the affected parts. […] The signs or symptoms returned when the frequency of taking the drug was lowered from once every 6 hours to once every 10 hours.

[4] = test system: patient with muscle spasms, pain and inability to sleep; assay: muscle spasms, pain, sleep and restless leg; format: in vivo, human; conditions: 300 mg/kg per day
Procedure: Severe sleep disturbance can be caused by inability to relax the axial muscles due to hypertonus. It is not appreciated by those without hypertonus of the muscles, but it is necessary for the somatic muscles to relax to a predetermined level, before sleep will commence. Hypertonus can prevent that relaxation and prevent sleep. One patient was unable to achieve normal REM sleep for over 15 years, when their autoimmune disease was treated with the current treatments, which are essentially ineffective. However, this same patient was restored to essentially […] on the doses of this invention. Additionally this patient suffered from severe “restless leg syndrome” which is caused by the same disease conditions of the sympathetic chain as causes all above. […] At the levels of '114 these benefits were only slightly apparent, with the doses of this application normal REM sleep is restored. And, if the drug levels of the 2-aminopurines are allowed to drop for only a few hours the inability to sleep, and the severe restless leg return to the afflicted. […] The relationship of the appearance or suppression of the signs or symptoms of sleep disturbance to the onboard drug level is consistent and dramatic. […] The patient was administered 300 mg/kg of famciclovir per day and experienced relief of 90% of the spasms and pain. […]

[5] = test system: patient with rheumatoid arthritis; assay: rheumatoid arthritis signs or symptoms; format: in vivo, human; conditions: 300 mg/kg per day
Procedure: Another effect of anti-herpes drugs was elimination of the signs or symptoms of rheumatoid arthritis. A patient experienced 100% reduction in joint swelling, pain, inflammation and clicks at 300 mg/kg of famciclovir per day.

[6] = test system: patient with reduced renal function; conditions: on the doses of '114 (maximum 120 mg/kg/day); improved from 29 mL/min; cited from earlier work
[7] = test system: patient with nose and brow acne and rosacea; assay: acne and rosacea; format: in vivo, human; conditions: 300 mg/kg per day
Procedure: Additional symptoms relieved by the high doses of anti-herpes drugs involve severe nose and brow acne and rosacea on the chin and lower cheeks. Although the mechanism for these conditions is not understood, they are believed to be of autoimmune origin. Both skin conditions disappeared at 300 mg/kg of famciclovir per day and recurred when the drug was stopped.

[8] = test system: herpes-infected patient with kyphosis; assay: kyphosis; format: in vivo, human; conditions: 300 mg/kg per day
Procedure: Another condition observed in a herpes-infected patient was kyphosis or abnormal curvature of the upper spine. Generally, kyphosis is thought to result from habitual poor posture. However, kyphosis is sometimes caused by abnormal contraction of some spinal muscles. When the patient received 300 mg/kg of famciclovir per day, their posture improved as the contracted spinal muscles relaxed.

[9] = test system: patient with urination problems; assay: urination problems (benign prostate hypertrophy symptoms); format: in vivo, human; conditions: 300 mg/kg per day, taken in 6 hour increments
Procedure: The same high doses of famciclovir also relieved urination problems in a patient, such as hesitancy, weak stream and retention. These signs or symptoms are usually associated with benign prostate hypertrophy. However, without taking any prostate-specific drugs, but famciclovir alone, the patient achieved substantial relief of these symptoms. The signs or symptoms disappeared or were at least 90% relieved at 300 mg/kg of famciclovir per day, taken in 6 hour increments. The symptoms returned in about 10 hours when the drug was taken every 10 hours instead of every six hours. When the drug was taken every 6 hours, the symptoms, once again, disappeared.

Compound: CC(=O)OCC(CCn1cnc2cnc(N)nc21)COC(C)=O [famciclovir, 2-amino-9-(4-acetoxy-3-acetoxymethylbut-1-yl)purine]
- soft palate muscle strength ([1]; 300 mg/kg daily, over a six-month period): gradually returned
- cranial nerve palsy symptoms eliminated ([1]; 300 mg/kg per day): 80%
- creatinine clearance level ([2]; dose increased from '114 level to levels of this application, from 89 mL/min, 100 kg man): 143 mL/min
- impaired kidney function ([2]; more than 250 mg/kg of body weight per day): significant improvement
- Raynaud's signs or symptoms (pain, cold, discoloration, lack of sensation, weakness) [3]: dramatically abated
- relief of the spasms and pain [4]: 90%
- severe bowel and back pain and spasms relieved [4]: about 80%
- reduction in joint swelling, pain, inflammation and clicks [5]: 100%
- creatinine clearance level [6]: 89 mL/min
- skin conditions (acne, rosacea) [7]: disappeared
- posture in kyphosis [8]: improved
- urination signs or symptoms (hesitancy, weak stream, retention) relieved [9]: at least 90%
